Values quoted from earlier work, collected in patent US20060201391A1, “Compositions having sustained-release insect repellency” (priority 2005, published 2006).

Tested on: mosquitoes, stable flies and deer ticks

For `C[C@H]1COC(=O)[C@@H]2[C@@H]1CC[C@@H]2C` [DHN, dihydronepetalactone], the “insect repellency compared with DEET” value is listed as “substantially equivalent to DEET”.
